From US9089540B2, “Method for determination of sensitivity to anti-cancer agent” (KEIO UNIVERSITY, priority 2008, dated 2015)

Assays:
[1] = test system: 5 kinds of human colorectal cancer cell lines (COLO320, HCT-15, HT-29, LS174T, HCT116); test: Evaluation of SN-38 sensitivity, MTS assay (cell survival rate); assay type: cell-based; details: 72 hours exposure, range over 5 cell lines, read-out: IC50 value of each cell line (SN-38 sensitivity)
Procedure: After exposure of each cell line to 0 to 1,000 μmol/Loxaliplatin for 48 hours, a cell survival rate was evaluated with MTS assay (CellTiter96™ AQueous One Solution Cell Proliferation Assay, Promega). Then, IC50 value (a concentration at which the number of cells is suppressed to 50% with respect to that in an oxaliplatin-untreated well) was calculated and used as an oxaliplatin sensitivity in each cell line. The evaluation of the sensitivity was performed four times with cells having different passage numbers and the average value and the standard deviation value thereof were calculated.
As cells, 5 kinds of human colorectal cancer cell lines (COLO320, HCT-15, HT-29, LS174T, HCT116 (HCT116 was obtained from ECACC)), and as a drug, an irinotecan active metabolite (SN-38, obtained from Yakult Honsha, Co., Ltd.) were used. The cell survival rate after exposure to 0 to 1,000 nmol/L SN-38 for 72 hours was evaluated by MTS assay in the same manner as in Example 1 and the IC50 value was calculated. […] For the analysis, ProteinChip™ Reader (Model PCS4000 Personal Edition, Bio-Rad) was used, and the analysis was performed under the following conditions: mass range, 0 to 70,000 daltons; focus mass, 11,000 daltons; energy, 3,000 nJ; and 265 shots in total per sample. […]

[2] = Clinical blood exposure to SN-38 after irinotecan administration, calculated from interview form parameters; assay type: in vivo, human
Procedure: Based on the pharmacokinetic parameters of SN-38 (Campto™, interview form), the area under the curve of SN-38 blood concentration (AUCSN-38) obtained after the first irinotecan administration of the colon cancer therapy regimen (180 mg/m^2/day) was calculated to be 1,449 nmol·h/L. The concentration of SN38 required to obtain the same exposure amount through 72-hour exposure employed in this Example was calculated to be 20 nM. Therefore, a cut off value was set to 20 nM for the IC50 value of each cancer cell line with respect to SN-38 and the cancer cell lines were classified into two groups of a high sensitivity group and a low sensitivity group. As a result, there was a significant increase in the peak intensity of the peak detected at m/z of 11,000 to 11,100 in the low sensitivity group (FIG. 6).

[3] = human, in vivo, 100 mg/m2
[4] = roughly corresponding to the cut off value; cited from earlier work

CCc1c2c(nc3ccc(O)cc13)-c1cc3c(c(=O)n1C2)COC(=O)[C@]3(O)CC [SN-38]
IC50 [1]: 3.39 to 33.7 nM
concentration of SN38 required to obtain the same exposure amount through 72-hour exposure ([2]; AUC equivalent over 72-hour exposure): 0.02 µM
area under the curve of SN-38 blood concentration (AUCSN-38) ([2]; after first irinotecan administration of colon cancer regimen, 180 mg/m^2/day): 1,449 nmol·h/L

N.N.[Cl][Pt][Cl] [cisplatin, cis-Diammineplatinum(II) dichrolide]
Cmax [3]: 9.5 to 11 µM

O=C1[O][Pt]2([NH][C@@H]3CCCC[C@H]3[NH]2)[O]C1=O [oxaliplatin, (SP-4-2)-[(1R,2R)-cyclohexane-1,2-diamine-κN,κN′][ethanedioato (2-)-κO^1,κO^2]platinum]
peak blood concentration at the time of clinical use [4]: ~5.0 µM
